The text below walks through data of PubChem BioAssay (NCI).

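Each compound was tested at five concentrations against cells in 96-well plates for 48 hours. Abbreviation: GI50, concentration required for 50% inhibition of growth. TGI marks complete inhibition of growth.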 A value given as a limit tells only on which side of the number the result lay.

Test systems include SK-MEL-2 melanoma; UACC-257 melanoma; OVCAR-8 ovarian; RXF 393 renal; K-562 leukemia; RPMI-8226 leukemia; SW-620 colon; HCT-15 colon; NCI/ADR-RES ovarian; T-47D breast.
Assay in all cases: growth of human tumour cells (NCI), 48 h

On to `Cc1cc([N+](=O)[O-])ccc1NC(=O)C(=O)C(C(=O)c1ccccc1-c1ccccc1)C1OC(=O)c2ccccc21` (stereo not given), for which the TGI with SK-MEL-2 melanoma turned out to be 29.2 µM; with UACC-257 melanoma it was 86.5 µM; in the test with OVCAR-8 ovarian, 77.1 µM; in the test with RXF 393 renal, 19.5 µM; with K-562 leukemia, 89.3 µM; in the test on RPMI-8226 leukemia, 98 µM. The TGI in the test with SW-620 colon was 36.6 µM; with HCT-15 colon, 36.8 µM.

Consider `COc1c(C)cc(O)cc1C=O`, for which the TGI in the test with SK-MEL-2 melanoma, in the test with UACC-257 melanoma, in the test with OVCAR-8 ovarian, with RXF 393 renal, with K-562 leukemia and in the test with RPMI-8226 leukemia was > 100 µM each time. The TGI in the test on SW-620 colon and with HCT-15 colon was > 100 µM each time.

Take `CCOC(=O)C1SC(=Nc2cccc(Cl)c2C)N=C1C` (stereo not given): the TGI is 37 µM in the test on SK-MEL-2 melanoma; > 10 µM with UACC-257 melanoma; 61.9 µM in the test on OVCAR-8 ovarian; > 100 µM with RXF 393 renal; 89 µM in the test on K-562 leukemia; 69.9 µM with RPMI-8226 leukemia. Further, the TGI in the test with SW-620 colon is 57.5 µM; in the test on HCT-15 colon it was > 10 µM.

Take `O=c1cc(-c2ccccc2)oc2ccc(OC/C(=N/O)c3ccccc3)cc12`: the GI50 with SK-MEL-2 melanoma was 29.6 µM; in the test on NCI/ADR-RES ovarian it was 3.3 µM; in the test with UACC-257 melanoma, 5.12 µM; in the test on OVCAR-8 ovarian, 3.82 µM; in the test with RXF 393 renal, 2.46 µM; with K-562 leukemia it was 2.53 µM. In addition, the GI50 is 1.83 µM in the test with RPMI-8226 leukemia, 1.74 µM in the test on SW-620 colon and 2.19 µM in the test with HCT-15 colon. Further, the TGI was > 50 µM in the test with SK-MEL-2 melanoma; > 50 µM with NCI/ADR-RES ovarian; > 50 µM with UACC-257 melanoma; > 50 µM in the test on OVCAR-8 ovarian; 14.8 µM with RXF 393 renal; > 50 µM in the test with K-562 leukemia. Besides, the TGI in the test on RPMI-8226 leukemia, with SW-620 colon and with HCT-15 colon was > 50 µM each time.

Turning to `NC1=CC(=O)c2cccnc2C1=O`, the GI50 in the test with SK-MEL-2 melanoma was 1.63 µM; in the test with NCI/ADR-RES ovarian it was 2.29 µM; with UACC-257 melanoma it was 1.54 µM; in the test on OVCAR-8 ovarian, 1.66 µM; in the test with RXF 393 renal, 1.67 µM; in the test with RPMI-8226 leukemia it was 1.81 µM. Also, the GI50 was 1.56 µM in the test with SW-620 colon and 1.76 µM in the test on HCT-15 colon. Moreover, the TGI with SK-MEL-2 melanoma is 3.14 µM; in the test with NCI/ADR-RES ovarian, 11.2 µM; in the test on UACC-257 melanoma, 2.9 µM; in the test with OVCAR-8 ovarian it was 4.2 µM; in the test with RXF 393 renal, 3.2 µM; in the test with RPMI-8226 leukemia, 4.58 µM. Further, the TGI amounted to 3.57 µM with SW-620 colon and 10.2 µM with HCT-15 colon.

With `COc1ccc(OC(C)=O)c2c1CCC=CC2=O`, the TGI in the test with SK-MEL-2 melanoma was determined as 33.7 µM; in the test with UACC-257 melanoma it was 31.8 µM; with OVCAR-8 ovarian, 31.4 µM; in the test on RXF 393 renal it was 21.6 µM; in the test on K-562 leukemia it was 18.6 µM; with RPMI-8226 leukemia, 3.96 µM. Moreover, the TGI worked out at 28.8 µM with SW-620 colon and 30.1 µM in the test with HCT-15 colon.

In the case of `COc1ccc(/C=C(/C(=O)N2CCN(c3ccccc3)CC2)c2cc(OC)c(OC)c(OC)c2)cc1N`, the GI50 is 0.725 µM in the test on SK-MEL-2 melanoma; 0.623 µM in the test with NCI/ADR-RES ovarian; 3.65 µM in the test with UACC-257 melanoma; 0.375 µM with OVCAR-8 ovarian; 0.272 µM with RXF 393 renal; 0.316 µM in the test on K-562 leukemia. Further, the GI50 in the test with RPMI-8226 leukemia was 0.327 µM; in the test on SW-620 colon it was 0.401 µM; in the test on HCT-15 colon it was 0.388 µM. For the same molecule, the TGI with SK-MEL-2 melanoma, with NCI/ADR-RES ovarian, with UACC-257 melanoma, in the test with OVCAR-8 ovarian, in the test on RXF 393 renal and with K-562 leukemia was > 100 µM each time. For the same molecule, the TGI in the test with RPMI-8226 leukemia was 12 µM; with SW-620 colon, > 100 µM; with HCT-15 colon, > 100 µM.

Turning to `COc1ccc(C(CCC(C)=O)C(=O)O)cc1OC` (stereo not given), the TGI in the test on SK-MEL-2 melanoma, with UACC-257 melanoma, in the test with OVCAR-8 ovarian, with RXF 393 renal, in the test on K-562 leukemia and with RPMI-8226 leukemia was > 100 µM in each case. Besides, the TGI in the test on SW-620 colon and in the test on HCT-15 colon was > 100 µM each time.

Consider `Cc1ccc(S(=O)(=O)c2ccc(NC(=O)SCCC(=O)O)cc2)cc1`, for which the TGI in the test on SK-MEL-2 melanoma, in the test on UACC-257 melanoma, with OVCAR-8 ovarian, in the test with RXF 393 renal, in the test with K-562 leukemia and with RPMI-8226 leukemia was > 100 µM throughout. Moreover, the TGI in the test on SW-620 colon and in the test with HCT-15 colon was > 100 µM each time.

With `CN(C)c1ccc(/C=C/C(=O)[O-])cc1.CN(C)c1ccc(/C=C/C(=O)[O-])cc1.[Cu+2]`, the TGI with SK-MEL-2 melanoma, in the test with UACC-257 melanoma, with OVCAR-8 ovarian, in the test with RXF 393 renal, with K-562 leukemia and in the test on RPMI-8226 leukemia was > 100 µM in each case. Further, the TGI with SW-620 colon and in the test with HCT-15 colon was > 100 µM in each case. For the same molecule, in the test on RXF 393 renal, the GI50 was > 100 µM.

With `O=C(/C=C/c1ccco1)c1cc(F)c(Cl)cc1Cl`, the GI50 is 18.1 µM with SK-MEL-2 melanoma; 24.6 µM in the test on UACC-257 melanoma; 24.5 µM in the test with OVCAR-8 ovarian; 19.1 µM in the test with RXF 393 renal; 30.2 µM with K-562 leukemia; 13.8 µM in the test on RPMI-8226 leukemia. The GI50 is 18.1 µM in the test with T-47D breast, 13.1 µM in the test on SW-620 colon and 21.5 µM with HCT-15 colon. The TGI with SK-MEL-2 melanoma was 34.6 µM; in the test on UACC-257 melanoma, 50.5 µM; in the test with OVCAR-8 ovarian, 68.3 µM; in the test with RXF 393 renal, 37.7 µM; with K-562 leukemia, > 100 µM; in the test with RPMI-8226 leukemia, 39.9 µM. The TGI in the test with T-47D breast worked out at 56.8 µM; in the test with SW-620 colon it was 36.3 µM; with HCT-15 colon, 55.8 µM.

`O=C1CC(c2c(-c3ccccc3)[nH]c3ccccc23)C(=O)N1` (stereo not given): the TGI with SK-MEL-2 melanoma, in the test with UACC-257 melanoma, in the test on OVCAR-8 ovarian, in the test on RXF 393 renal, in the test on K-562 leukemia and in the test on RPMI-8226 leukemia was > 100 µM each time. Also, the TGI in the test with SW-620 colon and in the test on HCT-15 colon was > 100 µM each time.
